Assay results reported in ChEMBL document CHEMBL3137667, “[Drug-induced liver injury; fourteenth updated edition of the bibliographic database of liver injuries and related drugs]” (Gastroenterol Clin Biol, 2004).

Tests used:
[1] = Highest frequency of moderate liver toxicity observed during clinical trials, expressed as a percentage. [column '% BIOL' in source]; settings: human
[2] = Highest frequency of acute liver toxicity observed during clinical trials, expressed as a percentage. [column '% AIGUE' in source]; settings: human
[3] = Presence of at least one case with successful reintroduction. [column 'REINT' in source]; settings: human
[4] = Comments (NB not yet translated). [column 'COMMENTAIRES' in source]; settings: human
[5] = Times to onset, minimal and maximal, observed in the indexed observations. [column 'DELAI' in source]; settings: human
[6] = Proposed mechanism(s) of liver damage. [column 'MEC' in source]; settings: human
[7] = human, serum
[8] = human, serum; remark: listed apart in the source
[9] = human
[10] = human; remark: listed apart in the source
[11] = human; remark: listed apart in the source
[12] = human, serum, 4383 h
[13] = human; remark: listed apart in the source
[14] = human; remark: listed apart in the source
[15] = human; remark: listed apart in the source
[16] = human; remark: listed apart in the source
[17] = human; remark: listed apart in the source
[18] = human; remark: listed apart in the source
[19] = human; remark: listed apart in the source
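For Hepatotoxicity (association with vascular disease) in this document: count of indexed literature references reporting vascular liver injury in humans, e.g. peliosis hepatitis, hepatic veno-occlusive disease or Budd-Chiari syndrome.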
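For Hepatotoxicity (benign tumour) in this document: value is a count of indexed literature references citing a benign tumour confirmed by histopathology.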
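For Hepatotoxicity (choleostasis) in this document: human cholestatic liver injury, shown by histopathology or by peak ALT or AST elevation over alkaline phosphatase ratio below 2, value counts indexed literature reports.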
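For Hepatotoxicity (chronic liver disease) in this document: chronic liver injury confirmed by histopathology or persistently raised serum aminotransferase activity beyond 6 months, value given as the count of indexed literature references.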
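For Hepatotoxicity (cirrhosis) in this document: value is a count of indexed literature references reporting cirrhosis confirmed by histopathology.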
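For Hepatotoxicity (cytolytic) in this document: human cytolytic liver injury, shown by histopathology or by a ratio above 5 of peak ALT or AST elevation to alkaline phosphatase elevation, value counts indexed references.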
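For Hepatotoxicity (granulomatous hepatitis) in this document: value is a count of indexed literature references reporting granulomatous liver disease confirmed by histopathology.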
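For Hepatotoxicity (malignant tumour) in this document: malignant tumour confirmed by histopathology, value gives the count of indexed literature references reporting it.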
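For Hepatotoxicity (severe hepatitis) in this document: human clinical data: severe hepatitis, meaning potentially life-threatening liver failure or clinically observed cases, the value counts how many indexed literature references report it.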
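For Hepatotoxicity (steatosis) in this document: steatosis confirmed by histopathology, value is the count of indexed references.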

Row | Molecule | Hepatotoxicity (moderate) [1] [%] | Hepatotoxicity (acute) [2] [%] | Hepatotoxicity (successful reintroduction) [3] | Hepatotoxicity (comment) [4] | Hepatotoxicity (time to onset) [5] | Hepatotoxicity (mechanism) [6] | Hepatotoxicity (moderate) [7] | Hepatotoxicity (acute) [8] | Hepatotoxicity (cytolytic) [9] | Hepatotoxicity (choleostasis) [10] | Hepatotoxicity (severe hepatitis) [11] | Hepatotoxicity (chronic liver disease) [12] | Hepatotoxicity (cirrhosis) [13] | Hepatotoxicity (granulomatous hepatitis) [14] | Hepatotoxicity (association with vascular disease) [15] | Hepatotoxicity (steatosis) [16] | Hepatotoxicity (malignant tumour) [17] | Hepatotoxicity (benign tumour) [18] | Hepatotoxicity (animal toxicity known) [19]
1 | CC[C@]1(O)C[C@H]2CN(CCc3c([nH]c4ccccc34)[C@@](C(=O)OC)(c3cc4c(cc3OC)N(C=O)[C@H]3[C@@](O)(C(=O)OC)[C@H](OC(C)=O)[C@]5(CC)C=CCN6CC[C@]43[C@@H]65)C2)C1 [VINCRISTINE] | 7.3 | 0 | yes | I/RADIOTHERAPIE REACTIVATION_HVB | 3 days - 20 days | Dose-dependant | 3 | 5 | 4 | 0 | 4 | 0 | 0 | 0 | 7 | 0 | 1 | 0 | yes
2 | ALDESLEUKIN | 100 | 35.7 | yes | CHOLECYSTITE PERICHOLANGITE | 1 day - 2 years | Allergic, Dose-dependant | 58 | 14 | 6 | 6 | 1 | 0 | 1 | 0 | 0 | 1 | 0 | 0 | yes
3 | CISPLATIN | 93 | 7 | yes | CHOLANGITE/IAH | 1 day - 2 weeks | Dose-dependant | 23 | 3 | 2 | 1 | 1 | 0 | 0 | 0 | 2 | 1 | 0 | 0 | yes
